24 compounds from patent US12448391B2, “Bicyclic derivatives for treating endoparasites” (Elanco Tiergesundheit AG, priority 2019, dated 2025) can be followed below.

In one assay the test system is D. immitis microfilariae. In words: Dog heart worm microfilariae motility assay. Format: cell-based. Particulars: Dirofilaria immitis, read-out: EC50 (motility inhibition).
A further assay deals with H. contortus larvae. In words: H. contortus Larval Development Assay (Hc LDA). Particulars: Haemonchus contortus, read-out: EC50 (motility inhibition).
For a further assay, the system named is Caenorhabditis elegans. In words: C. elegans development assay (Ce DA). The following applies: 48 h, read-out: EC90 (motility reduction).

Procedure for Caenorhabditis elegans: Caenorhabditis elegans (Ce): C. elegans development assay (Ce DA) measures the effect of compounds on developing nematodes. Eggs of C. elegans are deposited in a 384 well plate together with food (E. coli) and the treatment formulated in DMSO. Plates are incubated at 25° C. for 48 h to allow the development of nematodes up to the L4-stage. The effect of compounds is measured as motility reduction. Efficacy is expressed in % motility reduction compared to negative controls.
Procedure for H. contortus larvae: Ruminant Gastrointestinal (H. contortus Larval Development Assay (Hc LDA)):
H.c. eggs isolated from lamb fecal matter are allowed to hatch overnight. Test compounds are diluted in DMSO and added to a 96-well plate containing appropriate media. H.c. larvae are added to each well and plates are incubated for the desired time(s). Motility is assessed using an LCD camera imaging system. Percent motility inhibition values are generated relative to the average of the DMSO-only wells.

The EC50 is the concentration at which the effect is half-maximal. For the compound `O=C(NN1CCOc2ccccc21)c1cnc2c(-c3cc(F)c(F)c(F)c3F)cccc2c1N1CCOCC1` [Example 5.20, N-(2,3-dihydro-1,4-benzoxazin-4-yl)-4-morpholino-8-(2,3,4,5-tetrafluorophenyl)quinoline-3-carboxamide], the EC50 in the assay with D. immitis microfilariae is < 0.1 µg/mL; in the assay on H. contortus larvae it was < 1 µg/mL. The like results for `O=C(NN1CCOc2ccccc21)c1cnc2c(-c3cncc(F)c3Cl)cccc2c1N1CCOCC1` [Example 5.21, 8-(4-chloro-5-fluoro-3-pyridyl)-N-(2,3-dihydro-1,4-benzoxazin-4-yl)-4-morpholino-quinoline-3-carboxamide] were, in that order, < 0.1 µg/mL and < 1 µg/mL. As to `O=C(NN1CCOc2ccccc21)c1cnc2c(-c3cc(Cl)cc(C(F)(F)F)n3)cccc2c1N1CCOCC1` [Example 5.22, 8-[4-chloro-6-(trifluoromethyl)-2-pyridyl]-N-(2,3-dihydro-1,4-benzoxazin-4-yl)-4-morpholino-quinoline-3-carboxamide], the EC50 in the assay with D. immitis microfilariae was < 0.1 µg/mL; in the assay on H. contortus larvae it was < 1 µg/mL. What is called EC90 is the point of the concentration-response curve where the effect stands at 90%. Regarding `O=C(NN1CCOc2ccccc21)c1cnc2c(-c3cc(Cl)c(F)c(Cl)c3F)cccc2c1N1CCOCC1` [Example 5.23, 8-(3,5-dichloro-2,4-difluoro-phenyl)-N-(2,3-dihydro-1,4-benzoxazin-4-yl)-4-morpholino-quinoline-3-carboxamide], the values for the EC50 in the assay with D. immitis microfilariae and in the assay on H. contortus larvae were < 0.1 µg/mL and < 1 µg/mL, respectively. Also, the EC90 with Caenorhabditis elegans is < 1 µg/mL.

`O=C(NN1CCc2ccccc21)c1cnc2c(-c3cc(F)cc(F)c3F)cccc2c1N1CCOCC1` [Example 5.24, N-indolin-1-yl-4-morpholino-8-(2,3,5-trifluorophenyl)quinoline-3-carboxamide]: the EC50 is < 0.1 µg/mL in the assay on D. immitis microfilariae and < 1 µg/mL in the assay with H. contortus larvae.

`N#Cc1ccc2c(N3CCOCC3)c(C(=O)NN3CCOc4ccccc43)cnc2c1-c1cc(Cl)cc(Cl)c1` [Example 5.35, 7-cyano-8-(3,5-dichlorophenyl)-N-(2,3-dihydro-1,4-benzoxazin-4-yl)-4-morpholino-quinoline-3-carboxamide]: the EC90 in the assay on Caenorhabditis elegans is < 1 µg/mL. In the case of `O=C(NN1CCOc2ccccc21)c1cnc2c(-c3cc(F)cc(F)c3F)cccc2c1C1CC1` [Example 5.36, 4-cyclopropyl-N-(2,3-dihydro-1,4-benzoxazin-4-yl)-8-(2,3,5-trifluorophenyl)quinoline-3-carboxamide], the EC90 in the assay on Caenorhabditis elegans is < 1 µg/mL. Same read-out and setting: under `O=C(NN1CCOc2ccccc21)c1cnc2c(-c3cc(F)c(F)c(F)c3)c(F)ccc2c1N1CCOCC1` [Example 5.41, N-(2,3-dihydro-1,4-benzoxazin-4-yl)-7-fluoro-4-morpholino-8-(3,4,5-trifluorophenyl)quinoline-3-carboxamide] stands < 1 µg/mL. Same read-out and setting: next, `O=C(NN1CCOc2ccccc21)c1cnc2c(-c3cc(F)cc(F)c3F)cccc2c1C1CCOCC1` [Example 5.45, N-(2,3-dihydro-1,4-benzoxazin-4-yl)-4-tetrahydropyran-4-yl-8-(2,3,5-trifluorophenyl)quinoline-3-carboxamide]: < 1 µg/mL; `O=C(NN1CCOc2ccccc21)c1cnc2c(-c3cc(Cl)cc(Cl)c3F)c(F)ccc2c1N1CCOCC1` [Example 5.47, 8-(3,5-dichloro-2-fluoro-phenyl)-N-(2,3-dihydro-1,4-benzoxazin-4-yl)-7-fluoro-4-morpholino-quinoline-3-carboxamide]: < 1 µg/mL. For the compound `O=C(NN1CCOc2ccccc21)c1cnc2c(-c3cc(Cl)c(F)c(Cl)c3F)c(F)ccc2c1N1CCOCC1` [Example 5.48, 8-(3,5-dichloro-2,4-difluoro-phenyl)-N-(2,3-dihydro-1,4-benzoxazin-4-yl)-7-fluoro-4-morpholino-quinoline-3-carboxamide], in the assay with Caenorhabditis elegans, the 90% effect concentration (EC90) is < 1 µg/mL. Still for that read-out and setting: under `O=C(NN1CCOc2ccccc21)c1cnc2c(-c3cc(F)nc(F)c3F)cccc2c1N1CCOCC1` [Example 5.49, N-(2,3-dihydro-1,4-benzoxazin-4-yl)-4-morpholino-8-(2,3,6-trifluoro-4-pyridyl)quinoline-3-carboxamide] stands < 1 µg/mL. Same read-out and setting: under `O=C(NN1CCc2ccccc21)c1cnc2c(-c3cc(Cl)c(F)c(Cl)c3F)c(F)ccc2c1N1CCOCC1` [Example 5.54, 8-(3,5-dichloro-2,4-difluoro-phenyl)-7-fluoro-N-indolin-1-yl-4-morpholino-quinoline-3-carboxamide] stands < 1 µg/mL. On the same count and under the same terms, next, `COC(C)c1c(C(=O)NN2CCOc3ccccc32)cnc2c(-c3cc(F)cc(F)c3F)cccc12` (centres unmarked) [Example 5.55, N-(2,3-dihydro-1,4-benzoxazin-4-yl)-4-(1-methoxyethyl)-8-(2,3,5-trifluorophenyl)quinoline-3-carboxamide]: < 1 µg/mL; `CN(C)c1c(C(=O)NN2CCOc3ccccc32)cnc2c(-c3cc(Cl)c(F)c(Cl)c3F)c(F)ccc12` [Example 5.56, 8-(3,5-dichloro-2,4-difluoro-phenyl)-N-(2,3-dihydro-1,4-benzoxazin-4-yl)-4-(dimethylamino)-7-fluoro-quinoline-3-carboxamide]: < 1 µg/mL.

As to `O=C(NN1CCOc2ccccc21)c1cnc2c(-c3c(F)c(F)cc(F)c3F)cccc2c1N1CCOCC1` [Example 5.57, N-(2,3-dihydro-1,4-benzoxazin-4-yl)-4-morpholino-8-(2,3,5,6-tetrafluorophenyl)quinoline-3-carboxamide], the EC90 with Caenorhabditis elegans is < 1 µg/mL. With `O=C(NN1CCOc2ccccc21)c1cnc2c(-c3cc(Cl)c(F)c(Cl)c3F)c(F)ccc2c1C1CC1` [Example 5.58, 4-cyclopropyl-8-(3,5-dichloro-2,4-difluoro-phenyl)-N-(2,3-dihydro-1,4-benzoxazin-4-yl)-7-fluoro-quinoline-3-carboxamide], in the assay on Caenorhabditis elegans, the EC90 was < 1 µg/mL.

As to `O=C(NN1CCOc2ccccc21)c1cnc2c(-c3cc(C(F)(F)F)cc(C(F)(F)F)c3)c(F)ccc2c1N1CCOCC1` [Example 5.59, 8-[3,5-bis(trifluoromethyl)phenyl]-N-(2,3-dihydro-1,4-benzoxazin-4-yl)-7-fluoro-4-morpholino-quinoline-3-carboxamide], the EC90 with Caenorhabditis elegans is < 1 µg/mL. Same read-out and setting: next, `O=C(NN1CCOc2ccccc21)c1cnc2c(-c3cc(Cl)cc(F)c3F)c(F)ccc2c1N1CCOCC1` [Example 5.60, 8-(5-chloro-2,3-difluoro-phenyl)-N-(2,3-dihydro-1,4-benzoxazin-4-yl)-7-fluoro-4-morpholino-quinoline-3-carboxamide]: < 1 µg/mL. Still for that read-out and setting: under `O=C(NN1CCOc2ccccc21)c1cnc2c(-c3cc(Cl)cc(C(F)(F)F)c3)c(F)ccc2c1N1CCOCC1` [Example 5.61, 8-[3-chloro-5-(trifluoromethyl)phenyl]-N-(2,3-dihydro-1,4-benzoxazin-4-yl)-7-fluoro-4-morpholino-quinoline-3-carboxamide] stands < 1 µg/mL. Consider `CON(C)c1c(C(=O)NN2CCOc3ccccc32)cnc2c(-c3cc(Cl)c(F)c(Cl)c3F)c(F)ccc12` [Example 5.62, 8-(3,5-dichloro-2,4-difluoro-phenyl)-N-(2,3-dihydro-1,4-benzoxazin-4-yl)-7-fluoro-4-[methoxy(methyl)amino]quinoline-3-carboxamide], for which the EC90 in the assay on Caenorhabditis elegans was < 1 µg/mL. Consider `O=C(NN1CCOc2ccccc21)c1cnc2c(-c3ccc(C(F)(F)F)cc3)cccc2c1N1CCOCC1` [Example 5.63, N-(2,3-dihydro-1,4-benzoxazin-4-yl)-4-morpholino-8-[4-(trifluoromethyl)phenyl]quinoline-3-carboxamide], for which, in the assay on Caenorhabditis elegans, the EC90 is < 1 µg/mL. Consider `O=C(NN1CCOc2ccccc21)c1cnc2c(-c3cc(Cl)cc(Cl)c3)ncnc2c1N1CCOCC1` [Example 6.1, 4-(3,5-dichlorophenyl)-N-(2,3-dihydro-1,4-benzoxazin-4-yl)-8-morpholino-pyrido[3,2-d]pyrimidine-7-carboxamide], for which the EC50 in the assay with D. immitis microfilariae was < 0.1 µg/mL; in the assay on H. contortus larvae, < 1 µg/mL. For `O=C(NN1CCOc2ccccc21)c1cnc2c(-c3cc(Cl)cc(Cl)c3)cncc2c1N1CCOCC1` [Example 7.1, 8-(3,5-dichlorophenyl)-N-(2,3-dihydro-1,4-benzoxazin-4-yl)-4-morpholino-1,6-naphthyridine-3-carboxamide] the same measures were < 0.1 µg/mL and < 1 µg/mL.
